In US11873298B2, “Compounds and uses thereof” (JANSSEN PHARMACEUTICA NV, priority 2017, dated 2024):
pIC50: −log10 of the molar value.

Columns and labels:
SCD1 = target: T1, SCD1 (Homo sapiens, UniProt O00767); assay: Growth inhibition of humanized yeast strain expressing SCD1 as sole desaturase; type: cell-based
T1 construct: host or cells: S. cerevisiae ole1Δ strain (W303 pdr1Δ pdr3Δ background), plasmid pRS316 with TDH3 promoter and CYC1 terminator
T1 sequence (O00767 1-359): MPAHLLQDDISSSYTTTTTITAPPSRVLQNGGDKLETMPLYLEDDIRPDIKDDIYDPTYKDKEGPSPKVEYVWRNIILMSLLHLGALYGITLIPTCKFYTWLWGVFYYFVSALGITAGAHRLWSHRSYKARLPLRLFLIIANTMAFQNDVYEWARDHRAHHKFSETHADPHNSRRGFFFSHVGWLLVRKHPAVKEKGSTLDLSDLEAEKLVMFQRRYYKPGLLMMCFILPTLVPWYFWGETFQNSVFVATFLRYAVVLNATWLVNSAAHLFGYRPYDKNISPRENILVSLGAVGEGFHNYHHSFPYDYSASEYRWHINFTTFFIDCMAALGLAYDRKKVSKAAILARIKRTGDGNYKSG
Procedure, shortened: (§1)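 Measured by optical density at 600 nm, growth of desaturase-dependent yeast (OLE1 deleted; human SCD1, human SCD5 or yeast Ole1 supplied from plasmid) was scored after 24 h (Ole1) or 40 h (SCD1, SCD5) at 30° C. in galactose media lacking uracil with DMSO-delivered compound.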

SCD5 = target: T2, SCD5 (Homo sapiens, UniProt Q86SK9); assay: Growth inhibition of humanized yeast strain expressing SCD5 as sole desaturase; type: cell-based
T2 construct: host or cells: S. cerevisiae ole1Δ strain (W303 pdr1Δ pdr3Δ background), plasmid pRS316 with TDH3 promoter and CYC1 terminator
T2 sequence (Q86SK9 1-330): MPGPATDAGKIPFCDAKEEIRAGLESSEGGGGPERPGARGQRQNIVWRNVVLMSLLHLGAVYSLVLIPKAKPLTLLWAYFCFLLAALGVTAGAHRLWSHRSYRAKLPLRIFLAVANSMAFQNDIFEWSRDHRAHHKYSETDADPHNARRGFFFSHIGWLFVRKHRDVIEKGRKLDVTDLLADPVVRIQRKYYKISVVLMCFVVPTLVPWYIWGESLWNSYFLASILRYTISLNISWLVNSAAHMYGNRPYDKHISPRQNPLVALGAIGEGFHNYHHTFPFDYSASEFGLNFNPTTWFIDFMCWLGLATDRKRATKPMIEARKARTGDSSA
Procedure, shortened: as §1

[1] = growth inhibition of humanized yeast strain expressing human SCD1
[2] = growth inhibition of humanized yeast strain expressing human SCD5

Row | SMILES | pIC50 (SCD1; [1]) | pIC50 (SCD5; [2]) | pIC50 (SCD1; humanized yeast strain, 40 h) | pIC50 (SCD5; humanized yeast strain, 40 h)
1 | CC(=O)N1CC(n2ncc3ccc(-c4noc(C5CCN(C(=O)OC(C)(C)C)CC5)n4)cc32)C1 [Compound 710] | < 4.35 | 7.30 | – | –
2 | CC(=O)N1CC(n2cc3ccc(-c4noc(C5CCN(C(=O)OC(C)(C)C)CC5)n4)cc3n2)C1 [Compound 711] | < 4.35 | < 4.35 | – | –
3 | O=C(c1ccccc1)N1CCN(c2noc(-c3ccc4cnn(C5COC5)c4c3)n2)CC1 [Compound 712] | < 4.35 | 7.80 | – | –
4 | COC(=O)N1CCN(c2noc(-c3ccc4cnn(C5COC5)c4c3)n2)CC1 [Compound 713] | 5.25 | 8.00 | – | –
5 | CC(C)n1ncc2ccc(-c3nc(C4CCN(C(=O)c5ncccc5F)CC4)no3)cc21 [Compound 714] | < 4.35 | 6.64 | – | –
6 | CC(C)n1ncc2ccc(-c3nc(C4CCN(C(=O)c5sccc5Cl)CC4)no3)cc21 [Compound 715] | < 4.35 | 7.32 | – | –
7 | CC(C)n1ncc2ccc(-c3nc(C4CCN(C(=O)c5ncccn5)CC4)no3)cc21 [Compound 716] | < 4.35 | < 4.35 | – | –
8 | CC(C)n1ncc2ccc(-c3noc(C4CCN(C(=O)C(C)(C)C#N)CC4)n3)cc21 [Compound 717] | < 4.35 | 5.77 | – | –
9 | O=C(c1sccc1Cl)N1CCC(c2nc(-c3ccc4cnn(C5COC5)c4c3)no2)CC1 [Compound 718] | < 4.35 | 6.20 | – | –
10 | CC(C)(C)OC(=O)N1CCC(c2nc(-c3ccc4cn(C5CCCOC5)nc4c3)no2)CC1 (stereo not drawn) [Compound 719] | < 4.35 | < 4.35 | – | –
11 | CC(C)(C)OC(=O)N1CCC(c2nc(-c3ccc4cnn(C5CCCOC5)c4c3)no2)CC1 (stereo not drawn) [Compound 720] | < 4.35 | 5.71 | – | –
12 | CC(C)(C)OC(=O)N1CCN(c2nc(-c3ccc4cnn(C5CCC5)c4c3)no2)CC1 [Compound 721] | < 4.35 | 5.78 | – | –
13 | CC(C)n1ncc2ccc(-c3nc(C4CCN(C(=O)C5(O)CC5)CC4)no3)cc21 [Compound 722] | < 4.35 | 5.86 | – | –
14 | CC(C)c1noc2ccc(-c3noc(C4CCNCC4)n3)cc12 [Compound 723] | < 4.35 | < 4.35 | – | –
15 | CC1(OC(=O)N2CC(c3nc(-c4ccc5cnn(C6COC6)c5c4)no3)C2)CC1 [Compound 724] | < 4.35 | 5.90 | – | –
16 | O=C(c1ccccc1F)N1CCN(c2noc(-c3ccc4cnn(C5COC5)c4c3)n2)CC1 [Compound 725] | 5.22 | 7.96 | – | –
17 | O=C(c1ccccc1Cl)N1CCN(c2noc(-c3ccc4cnn(C5COC5)c4c3)n2)CC1 [Compound 726] | 5.25 | 8.00 | – | –
18 | CC(C)(C)CC(=O)N1CCC(c2nc(-c3ccc4cnn(C(=O)C5CCO5)c4c3)no2)CC1 (stereo not drawn) [Compound 727] | < 4.35 | < 4.35 | – | –
19 | CC(C)(C)OC(=O)N1CCC(c2nc(-c3ccc4cnn(C5CNC5)c4c3)no2)CC1 [Compound 728] | < 4.35 | 6.90 | – | –

Row | SMILES | pIC50 (SCD1; [1]) | pIC50 (SCD5; [2]) | pIC50 (SCD1; humanized yeast strain, 40 h) | pIC50 (SCD5; humanized yeast strain, 40 h)
20 | CC(C)(C)OC(=O)N1CCN(c2nc(-c3ccc4cn(C5CCC5)nc4c3)no2)CC1 [Compound 729] | < 4.35 | < 4.35 | – | –
21 | CC(C)(C)OC(=O)N1CCC(c2nc(-c3ccc4cnn(C5CCC5)c4c3)no2)CC1 [Compound 730] | < 4.35 | 6.14 | – | –
22 | CC(C)(C)OC(=O)N1CCC(c2nc(-c3ccc4cn(C5CCC5)nc4c3)no2)CC1 [Compound 731] | < 4.35 | < 4.35 | – | –
23 | CC(C)(C)CC(=O)N1CCC(c2nc(-c3ccc4cn[nH]c4c3)no2)CC1 [Compound 732] | < 4.35 | 4.50 | – | –
24 | CC(C)n1ncc2ccc(-c3ccc(C4CCN(C(=O)OC(C)(C)C)C4)nn3)cc21 (stereo not drawn) [Compound 733] | < 4.35 | 5.56 | – | –
25 | COC(=O)N1CCC(c2nc(-c3ccnc(Cl)c3)no2)CC1 [Compound 734] | < 4.35 | < 4.35 | – | –
26 | CC1(OC(=O)N2CCN(c3noc(-c4ccc5cnn(C6COC6)c5c4)n3)CC2)CC1 [Compound 735] | 5.40 | 8.00 | – | –
27 | CC(C)(C)OC(=O)N1CCC(c2nc(-c3ccc4cnn(C(C)(C)CO)c4c3)no2)CC1 [Compound 736] | 4.49 | 6.59 | – | –
28 | CN(C)CC(=O)N1CCN(c2nc(-c3ccc4cnn(C5COC5)c4c3)no2)CC1 [Compound 737] | < 4.35 | < 4.35 | – | –
29 | C=C(F)/C=C/n1ncc2ccc(-c3noc(C4CCN(C(=O)OC(C)(C)C)CC4)n3)cc21 [Compound 738] | < 4.35 | < 4.35 | – | –
30 | C=C(F)/C=C/n1cc2ccc(-c3noc(C4CCN(C(=O)OC(C)(C)C)CC4)n3)cc2n1 [Compound 739] | < 4.35 | < 4.35 | – | –
31 | O=C(c1nccs1)N1CCN(c2nc(-c3ccc4cnn(C5COC5)c4c3)no2)CC1 [Compound 740] | < 4.35 | 5.84 | – | –
32 | CC(C)(C)OC(=O)N1CCC(c2nc(-c3cccc(C(=O)N4CCC4)c3)no2)CC1 [Compound 741] | < 4.35 | 5.11 | – | –
33 | CC(C)(C)OC(=O)N1CCC(c2nc(-c3ccc4cnn(C5CC(F)(F)C5)c4c3)no2)CC1 [Compound 742] | < 4.35 | 5.30 | – | –
34 | CC(C)n1ncc2ccc(-c3noc(N4CCC(C5COC5)CC4)n3)cc21 [Compound 743] | < 4.35 | 4.83 | – | –
35 | CC(C)n1ncc2ccc(-c3noc(N4CCC5(CCO5)CC4)n3)cc21 [Compound 744] | < 4.35 | < 4.35 | – | –
36 | CNC(=O)c1nc(-c2ccc3c(C)nn(C)c3c2)no1 [Compound 745] | < 4.35 | < 4.35 | – | –
37 | CC(C)(C)OC(=O)N1CCC(c2nc(-c3ccnc(Cl)c3)no2)CC1 [Compound 747] | – | – | < 4.35 | 4.57
38 | COC1(C(=O)N2CCC(C)(c3nc(-c4ccc5cnn(C(C)C)c5c4)no3)CC2)CC1 [Compound 748] | – | – | < 4.35 | 5.67

Row | SMILES | pIC50 (SCD1; [1]) | pIC50 (SCD5; [2]) | pIC50 (SCD1; humanized yeast strain, 40 h) | pIC50 (SCD5; humanized yeast strain, 40 h)
39 | CC(C)(C)CCC(=O)N1CC(c2nc(-c3ccc4cnn(C5COC5)c4c3)no2)C1 [Compound 749] | – | – | < 4.35 | 4.68
40 | CC(C)(C)OC(=O)N1CCC(c2noc(-c3ccc4cnn(C5COC5)c4c3)n2)CC1 [Compound 750] | – | – | 5.49 | 8.00
41 | c1cc2cnn(C3COC3)c2cc1-c1nc(N2CCNCC2)no1 [Compound 751] | – | – | < 4.35 | < 4.35
42 | c1cc2cnn(C3COC3)c2cc1-c1nc(C2CCNCC2)no1 [Compound 752] | – | – | < 4.35 | < 4.35
43 | CC(C)(C)OC(=O)N1CCC(c2nc(-c3ccc4cnn(C5(C)COC5)c4c3)no2)CC1 [Compound 753] | – | – | < 4.35 | 6.23
44 | CC(C)(C)OC(=O)N1CCN(c2noc(-c3ccnc(Cl)c3)n2)CC1 [Compound 754] | – | – | < 4.35 | 4.78
45 | CC(C)n1ncc2ccc(-c3noc(C4CCN(C(=O)C56CCC(F)(CC5)CC6)CC4)n3)cc21 [Compound 755] | – | – | < 4.35 | 5.27
46 | CC(C)n1ncc2ccc(-c3noc(C4CCN(C(=O)C56CC(F)(C5)C6)CC4)n3)cc21 [Compound 756] | – | – | < 4.35 | 5.36
47 | CC(C)n1ncc2ccc(-c3noc(C4CCN(C(=O)C56CC(C(F)(F)F)(C5)C6)CC4)n3)cc21 [Compound 757] | – | – | < 4.35 | 5.31
48 | CC(C)n1ncc2ccc(-c3noc(C4CCN(C(=O)c5ncc(Cl)o5)CC4)n3)cc21 [Compound 758] | – | – | < 4.35 | 5.28
49 | CC(C)n1nc(CCN(C)C)c2ccc(-c3noc(C4CCN(C(=O)OC(C)(C)C)CC4)n3)cc21 [Compound 759] | – | – | < 4.35 | < 4.35
50 | CC(=O)NCCc1nn(C(C)C)c2cc(-c3noc(C4CCN(C(=O)OC(C)(C)C)CC4)n3)ccc12 [Compound 760] | – | – | < 4.35 | < 4.35
51 | CC(C)n1nc(CCN)c2ccc(-c3noc(C4CCN(C(=O)OC(C)(C)C)CC4)n3)cc21 [Compound 761] | – | – | < 4.35 | < 4.35
52 | CC(C)n1ncc2ccc(-c3nc(N4CCC5(CCO5)CC4)no3)cc21 [Compound 762] | – | – | < 4.35 | 5.28
53 | CC(C)n1ncc2ccc(-c3noc(N4CCC(O)(CCCl)CC4)n3)cc21 [Compound 763] | – | – | 4.53 | 4.74
54 | CC(C)n1ncc2ccc(-c3noc(N4C[C@H]5CN(C(=O)C(C)(C)C)C[C@H]5C4)n3)cc21 [Compound 764] | – | – | < 4.35 | 4.78
55 | CC(C)n1ncc2ccc(-c3noc(N4CCC(C(CO)CCl)CC4)n3)cc21 (stereo not drawn) [Compound 765] | – | – | 4.48 | 4.71
56 | CC(C)n1nc(CCS(C)(=O)=O)c2ccc(-c3noc(C4CCN(C(=O)OC(C)(C)C)CC4)n3)cc21 [Compound 766] | – | – | < 4.35 | < 4.35
57 | CC(C)n1nc(CCS(C)(=O)=O)c2ccc(-c3noc(C4CCN(C(=O)OC(C)(C)C)CC4)n3)cc21 [Compound 767] | – | – | < 4.35 | 8.00
